According to patent US12062422B2, “System, method and computer-accessible medium for use of heavy water as a probe for imaging metabolic activities” (The Trustees of Columbia University in the City of New York, priority 2018, dated 2024):

Assays:
HeLa cells [1] = experiment: SRS imaging of lipid droplets in HeLa cells, D-labeled fatty acids versus D2O; format: cell-based; conditions: for CDL signal distribution, lipid droplets: 10 μM D-labeled fatty acid, 6 hours
Method: For live-cell imaging, HeLa and COS-7 cells were seeded onto a glass-bottom dish (e.g., MatTek) and grown for 6 to 8 hours in regular DMEM before the medium was changed to DMEM containing 70% D2O. Cells were then grown for different periods of time before being placed onto the stage for SRS imaging. When treating cells with D-labeled fatty acids, they were first reacted with sodium hydroxide and then coupled to bovine serum albumin (“BSA”) in about 2:1 molar ratio to make 2 mM stock solution. Those stock solutions were then added to the medium to reach the final working concentration (e.g., 10 μM).
FIGS. 4A-4E illustrate the exemplary DO-SRS visualizes de novo lipogenesis in cultured cells and in C. elegans. […] The number of lipid droplets formed in the three conditions were quantified (mean±s.d.; N=5 for D-OA, 15 for D-PA, and 8 for D2O; double asterisks indicate p<0.01 in an unpaired t-test). CHL signal for D2O treatment confirmed the presence of few lipid droplets. […] Live bacteria were labeled by deuterium (element 405), and killed bacteria were not labeled (element 410). […] E. coli OP50 were seeded onto the D2O plates 24 hours before the experiments. Scale bar=20 μm. […] CDL mean intensity was plotted. For all C. elegans experiments, at least 8 animals were imaged for each condition to calculate mean intensity; mean±s.d. of the mean intensity was shown.

mice = experiment: Injection of D-PA into mice, SRS imaging of CDL signal; format: in vivo; conditions: intraperitoneal bolus injection of 96 μmol
Method: To inject D-labeled palmitic acids (“D-Pas”) intravenously, mice were anesthetized by isoflurane, and one of the carotid arteries was cannulated for the implantation of a catheter. A syringe filled with 4 mM D-PA dissolved in mammalian Ringer's solution was then connected with the implanted catheter, and D-PA solution was perfused at 0.001 ml/min using a syringe pump (e.g., AL-1000, WPI). The administration lasted for 8 hours every day for three consecutive days before the mice were sacrificed and their organs were harvested, fixed, sectioned, and imaged by SRS. To inject D-PA intraperitoneally, 0.16 ml of 600 mM D-PA emulsion was injected into the lower right side of abdomen according to a previous method. (See, e.g., Reference 64). 17 hours later, the mice were sacrificed and their tissues were collected and imaged.
FIGS. 13A-13C show exemplary images that illustrate imaging de novo biosynthesis in various mouse organs. […] Lipid-rich sebaceous glands and adipose tissues were harvested from adult mice that drank 25% D2O for 8 and 15 days, respectively. Myelinated axon fibers of internal capsule were harvested from P11 mouse pups that were fed on milk produced by mother mice drinking 25% D2O for 6 days before imaging. […] Tissues were harvested, fixed, and imaged 17 hours after the injection. […] Scale bar=[…].

HeLa cells [2] = experiment: Raman spectra of D2O-treated HeLa cells with protein or lipid synthesis inhibitors; format: cell-based; conditions: 24 hours
Method: For inhibitor treatments, cells were first grown in glass bottom dishes with DMEM made of H2O overnight, and then the medium was changed to 70% D2O DMEM containing either 10 nM fatty acid synthase inhibitor TVB-3166 (e.g., Sigma CAS 1533438-83-3) or 1 μM protein synthesis inhibitor anisomycin (e.g., Sigma CAS 22862-76-6). Cells were then cultured for 24 hours, imaged by SRS microscopy, and fixed by 4% paraformaldehyde for spontaneous Raman spectroscopy.
Cells grown in DMEM made of 100% H2O were used as control.

endoplasmic reticulum = conditions: approximately 200 μM; cited from earlier work
HeLa cells [3] = experiment: CellTiter-Glo Luminescent Cell Viability Assay, cellular toxicity of D2O; format: cell-based; conditions: medium containing D2O
Method: To determine cellular toxicity, HeLa cells and COS-7 cells were first seeded in […] plates at about 500 per cm^2 and grown overnight; the culture was then changed to DMEM containing different concentration (e.g., 0% to 100%) of D2O for about 48 hours. The viability of cell was accessed using the CellTiter-Glo® Luminescent Cell Viability Assay (e.g., Promega) according to the manufacturer's protocol. Cells cultured in pure DMEM medium were used as control and wells containing only medium without cells for background luminescence. Viability was calculated using the background-corrected […] as follows: Viability (%)=Absorbance of experiment well/Absorbance of control well×100%. Three replicates were performed.
(§1) FIGS. 10A-10E show exemplary graphs and images that illustrate toxicity of D2O on cells and C. elegans. […] Three replicates were performed. Mean and s.d. were shown. […] D-labeled OP50 refers to overnight grown culture of E. coli OP50 that were seeded onto the D2O-containing NGM plates 24 hours before the experiment; non-labeled OP50 refers to the experimental setup, in which bacteria were killed by UV after being placed onto the D2O plates and thus was not labeled by deuterium. Each group has 50 worms, and three replicates were made. Mean and s.d. were shown.

[4] = in vivo; cited from earlier work
C. elegans = experiment: Toxicity of D2O on C. elegans (lethality, sterility, brood size, gonad development); format: in vivo
Method: C. elegans wild type (e.g., N2) and mutant strains were maintained at 20° C. using nematode growth media (“NGM”) and E. coli strain OP50 as a food source. (See. e.g., Reference 61). Different concentrations of D2O were added to replace H2O in NGM. E. coli OP50 were seeded on D2O-containing NGM plates and grown for 24 hours; worms were then placed at different ages onto those plates for various amount of time. To determine the toxicity of D2O, eggs were prepared using hypochlorite, which made the eggshell porous and permeable to D2O, placed them onto plates containing different concentration of D2O, and counted the number of eggs that could not hatch into normal moving larva. Fourth stage larva were placed onto those plates and counted how many animals became sterile and determined the brood size by counting the total number of hatch larvae from the all the eggs laid by one animal. Three replicates were performed.
as §1
50 worms were used for each treatment, and […] replicates were made. Mean and s.d. were shown. […] Scale bar=20 μm.

[5] = mouse, in vivo; cited from earlier work

Compound: [2H]C([2H])([2H])C([2H])([2H])C([2H])([2H])C([2H])([2H])C([2H])([2H])C([2H])([2H])C([2H])([2H])C([2H])([2H])C([2H])([2H])C([2H])([2H])C([2H])([2H])C([2H])([2H])C([2H])([2H])C([2H])([2H])C([2H])([2H])C(=O)O [D-PA, D31-palmitic acids]
- CDL signal distribution, lipid droplets (HeLa cells [1]): accumulation of CDL signal in lipid droplets
- CDL signal in pancreas (mice): accumulation of CDL signal in the ER membrane of pancreatic cells

Compound: [2H]OC(=O)C([2H])([2H])C([2H])([2H])C([2H])([2H])C([2H])([2H])C([2H])([2H])C([2H])([2H])C([2H])([2H])/C([2H])=C(/[2H])C([2H])([2H])C([2H])([2H])C([2H])([2H])C([2H])([2H])C([2H])([2H])C([2H])([2H])C([2H])([2H])C([2H])([2H])[2H] [D-OA, D34-oleic acids]
- number of lipid droplets, comparison (HeLa cells [1]; 10 μM): remarkably more lipid droplets than D-PA
- CDL signal distribution, lipid droplets (HeLa cells [1]): accumulation of CDL signal in lipid droplets

Compound: TVB-3166
- peak of remaining C-D Raman signal (HeLa cells [2]; 10 nM TVB-3166, 70% D2O DMEM, remaining D-labeled protein signal): 2185 cm⁻¹

Compound: CCCCCCCC/C=C\CCCCCCCC(=O)O [OA, oleic acid]
- effect on endoplasmic reticulum membrane (endoplasmic reticulum): not

Compound: [2H]O[2H] [D2O, deuterium oxide]
- D2O concentration above which toxicity arises (HeLa cells [3]): exceeded 80%
- adverse symptoms [4]: does not cause any adverse symptoms
- body water enrichment [4]: approximately 2%
- lipid droplets in CDL and CHL channels (HeLa cells [1]; 70% D2O, 24 hours): very few lipid droplets
- gonad development (C. elegans; 60% D2O, animals developed from L4 to adults on D2O plates): gonad developed normally
- gonad development (C. elegans; 80% D2O): gonad development was disrupted
- proliferation of the germ cells (C. elegans; 80% D2O): appeared to be affected
- D2O concentration with no observable toxicity and no effect on cell division (C. elegans; C. elegans): < 60%
- embryo formation (C. elegans; in vivo): normal embryos were formed
- embryo formation in the uterus (C. elegans; in vivo): no embryos were formed
- D2O enrichment that did not cause any effect on physiological processes [5]: below 20%

Compound: COc1ccc(C[C@H]2NC[C@H](O)[C@H]2OC(C)=O)cc1 [anisomycin]
- peak of remaining C-D Raman signal (HeLa cells [2]; 1 μM anisomycin, 70% D2O DMEM, remaining D-labeled lipid signal): 2135 cm⁻¹

Compound: CCCCCCCCCCCCCCCC(=O)O [PA, palmitic acid]
- effect on endoplasmic reticulum membrane (endoplasmic reticulum): drove the formation of solid-like microdomain and membrane phase separation in endoplasmic reticulum
